The results in this text go back to patent US20020166149A1, “Sustained totipotent regenerable tissue culture of Arundo donax (Giant Reed) and totipotent tissue and plants produced therefrom” (priority 2001, published 2002).

Data set [1] deals with A. donax plants (roots). The data set can be described thus: Trichloroethene challenge of cloned plants in phytoreactor. Format: in vivo, Arundo donax L. The conditions noted are these: 0.25 mM in hydroponic solution; after recovery period of 3 to 4 weeks. On the procedure: Sustained titopotent cultures of A donax were grown as described in Example 2, and cloned plants derived from the titopotent tissues were established in a standard liquid hydroponic solution in plastic tubs (Shown in FIG. 4A). In one phytoreactor tub, trichloroethene (trichloroethylene) was added to a concentration of 0.25 mM. This was believed to be a high concentration of the organic material, because the allowable EPA concentration is 0.005 mg/l.

Data set [2] relates to A. donax explants. The data set can be described thus: Phosphinothricin selection of explants on solid selective medium. Format: cell-based, Arundo donax L. The conditions noted are these: 10 mg/l. On the procedure:
Cross-sectional segment of immature A. donax inflorescence were prepared and cultivated as described in Example 2. The totipotent tissue was cocultivated with Agrobacterium tumefaciens carrying plasmid pMSF3022, which carried the bar gene for positive selection in plant cells. The gene confers resistance to the antibiotic/herbicide phosphinothricin.
Cocultivation was carried out in 6 ml. of liquid primary culture medium for four days in the dark at room temperature. Explants were then rinsed with liquid medium and placed on solid selective and non-selective control medium containing the antibiotic/herbicide phosphinothricine at 10 mg/l. All medium contained tidarcillin at 400 mg/l to eliminate residual A. tumefaciens. Controls include explants incubated without A. tumefaciens. […] This can be contrasted with control explants (which were not contacted with A. tumefaciens) that were killed by 10 mg/l of phosphinothricin (FIG. 3A). Also shown are control explants that have developed callus in the absence of phosphinothricin (FIG. 3B), and cocultivated explants that have developed callus in the absence of phosphinothricin (FIG. 3D).

Turning to `ClC=C(Cl)Cl` [trichloroethene], in data set [1], the “state of roots after challenge” value is given as “fully recovered”. Regarding `CP(=O)(O)CC[C@H](N)C(=O)O` [phosphinothricin], the “effect on explants cocultivated with Agrobacterium tumefaciens (bar gene)” value in data set [2] (cocultivated explants) was “development of herbicide resistant embryogenic tissue”. In addition, the “effect on control explants” value in data set [2] (control explants not contacted with A. tumefaciens) is “killed”.
